Measurements: patent publication US11413278B2, “Compounds and methods for promoting stress resistance” (priority 2015, dated 2022)
Entries after “also recorded” stand apart in the source; their conditions may differ. Read-outs that look alike come from different tables or passages of the source.

Key:
Assay type in all cases: cell-based, human
[1] = test system: FOXO3; assay: qPCR analysis of FOXO3-regulated genes; settings: for fold induction at 10 µM: Homo sapiens; for K = Sestrin induction: score; for Induction of at least two of five FOXO3-regulated genes (SOD2, GADD45A, CAT, DDB1, TXNIP): WI-38
Method in brief: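 WI-38 cells treated with compound at 10 μM for 24 h, followed by Cells-to-Ct RT-qPCR of FOXO3 target genes normalised to B2M, PPIA and GAPDH. FOXO3 or NRF2 dependence tested by prior 10 nM siRNA knockdown (36 h transfection, compound added ~24 h after replating).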

[2] = test system: NRF2; assay: qPCR analysis of NRF2-regulated genes; settings: for fold induction at 10 µM: Homo sapiens
Method in brief: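 WI-38 cells treated with compound at 10 μM for 24 hrs, then processed by Cells-to-Ct for RNA isolation, RT and qPCR of NRF2-regulated genes (HMOX1, NQO1, GCLC, GSTM1). Expression normalized to B2M, PPIA and GAPDH; siRNA knockdown of FOXO3 or NRF2 (10 nM) preceded treatment in some runs.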

[3] = test system: mTOR; assay: mTOR inhibition (RPS6 phosphorylation status), In-Cell Western
Method in brief: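 WI-38 cells exposed to compounds at 5, 10 and 20 μM for 24 hrs. Fixed cells co-stained overnight at 4° C with anti-RPS and anti-pRPS6 (Ser-235/236) antibodies, then DyLight 680/800 secondaries. Phospho-RPS6 relative to total RPS6 read by near-infrared In-Cell Western imaging.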

[4] = WI-38 cells, 10 μM, 24 hrs, n=4, qPCR normalized by B2M, read-out: DDB1 Normalized fold change
[5] = WI-38 cells, 10 μM, 24 hrs, n=4, qPCR normalized by B2M, read-out: GADD45A Normalized fold change
[6] = WI-38 cells, 10 μM, 24 hrs, n=4, qPCR normalized by B2M, read-out: SESN1 Normalized fold change
[7] = qPCR, WI-38 cells, 10 μM, n=4, 24 hrs, normalized by B2M, read-out: CAT Normalized fold change
[8] = qPCR, WI-38 cells, 10 μM, n=4, 24 hrs, normalized by B2M, read-out: SOD2 Normalized fold change
[9] = qPCR, WI-38 cells, 10 μM, n=4, 24 hrs, normalized by B2M, read-out: TXNIP Normalized fold change
[10] = WI-38 cells, 10 μM, 24 hrs, n=4, qPCR normalized by B2M, read-out: GCLC Normalized fold change
[11] = WI-38 cells, 10 μM, 24 hrs, n=4, qPCR normalized by B2M, read-out: GSTM1 Normalized fold change
[12] = WI-38 cells, 10 μM, 24 hrs, n=4, qPCR normalized by B2M, read-out: HMOX1 Normalized fold change
[13] = WI-38 cells, 10 μM, 24 hrs, n=4, qPCR normalized by B2M, read-out: NQO1 Normalized fold change
[14] = 10 μM, 24 hrs, WI-38 cells, qPCR, normalized to B2M, n = 4
[15] = WI-38 cells, 10 μM, 24 hrs, n=4, qPCR normalized by B2M
[16] = fold change, qPCR, WI-38 cells, 10 μM, 24 hrs
[17] = qPCR, WI-38 cells, 10 μM, n=4, 24 hrs, normalized by B2M
[18] = rounded fold change, WI-38 cells, 10 μM, 24 hrs (RP29 for Gr-4D)

SMILES: Cc1ccc(NC(=O)c2ccc([N+](=O)[O-])o2)cc1C [Gr-1F]
- E = Potential FOXO3 Activation ([1]; 2-point score): 0
- fold induction at 10 µM ([1]; 24 h, Assay 10(m), at 10 uM, qPCR, read-out: Induction of FOXO3-regulated genes: DDB1 normalized fold-change): 1.12
- fold induction at 10 µM ([1]; 24 h, Assay 10(m), at 10 uM, qPCR, read-out: Induction of FOXO3-regulated genes: GADD45A normalized fold-change): 0.8
- fold induction at 10 µM ([1]; 24 h, Assay 10(m), at 10 uM, qPCR, read-out: Induction of FOXO3-regulated genes: SESN1 normalized fold-change): 1.64
- fold induction at 10 µM ([1]; WI-38, 24 h, read-out: SESN1 expression): > 1.5
- fold induction at 10 µM ([1]; 10 μM, 24 hrs, WI-38 cells, qPCR, normalized to B2M, n = 4, read-out: CAT expression, normalized fold change (FOXO3-regulated gene)): 1.35
- fold induction at 10 µM ([1]; 10 μM, 24 hrs, WI-38 cells, qPCR, normalized to B2M, n = 4, read-out: SESN1 expression, normalized fold change (FOXO3-regulated gene)): 2
- fold induction at 10 µM [1, 4]: 1.37
- fold induction at 10 µM [1, 5]: 1.02
- fold induction at 10 µM [1, 6]: 2
- fold induction at 10 µM ([1]; fold change, qPCR, WI-38 cells, 10 μM, 24 hrs, read-out: Summary of effects on FOXO3-regulated genes: CAT): 1.35
- fold induction at 10 µM ([1]; fold change, qPCR, WI-38 cells, 10 μM, 24 hrs, read-out: Summary of effects on FOXO3-regulated genes: SESN1): 2
- fold induction at 10 µM [1, 7]: 1.35
- fold induction at 10 µM [1, 8]: 1.68
- fold induction at 10 µM [1, 9]: 1.54
- K = Sestrin induction [1]: 1
- E = Potential FOXO3 Activation ([1]; summary score): 0
- F = Potential NRF2 Activation ([2]; 2-point score): 0
- fold induction at 10 µM ([2]; 24 h, Assay 12(o), at 10 uM, qPCR, read-out: Induction of NRF2-regulated genes: GCLC normalized fold-change): 1.35
- fold induction at 10 µM ([2]; 24 h, Assay 12(o), at 10 uM, qPCR, read-out: Induction of NRF2-regulated genes: GSTM1 normalized fold-change): 1.28
- fold induction at 10 µM ([2]; 24 h, Assay 12(o), at 10 uM, qPCR, read-out: Induction of NRF2-regulated genes: HMOX1 normalized fold-change): 0.82
- fold induction at 10 µM ([2]; rounded fold change, WI-38 cells, 10 μM, 24 hrs, read-out: Summary of effects on NRF2-regulated genes: GCLC): 1.62
- fold induction at 10 µM ([2]; 10 μM, 24 hrs, WI-38 cells, qPCR, normalized to B2M, n = 4, read-out: GCLC expression, normalized fold change (NRF2-regulated gene)): 1.62
- fold induction at 10 µM [2, 10]: 1.62
- fold induction at 10 µM [2, 11]: 1.72
- fold induction at 10 µM [2, 12]: 1.09
- fold induction at 10 µM [2, 13]: 1.11
- F = Potential NRF2 Activation ([2]; summary score): 0
- G = mTOR down-regulation ([3]; 2-point score): 0
- G = mTOR down-regulation ([3]; summary score): 0

SMILES: COc1cc2c(no[n+]2[O-])n2nnnc12 [O11]
- Induction of at least two of five FOXO3-regulated genes (SOD2, GADD45A, CAT, DDB1, TXNIP) ([1]; 10 μM, 24 hrs): significant induction; also recorded: significant, induction; also recorded: induce FOXO3-regulated genes
- CAT expression, normalized fold change (FOXO3-regulated gene) [1, 14]: CAT 1.41, fold
- DDB1 expression, normalized fold change (FOXO3-regulated gene) [1, 14]: DDB1 1.31, fold
- SESN1 expression, normalized fold change (FOXO3-regulated gene) [1, 14]: SESN1 1.77, fold
- TXNIP expression, normalized fold change (FOXO3-regulated gene) [1, 14]: TXNIP 1.35, fold
- E = Potential FOXO3 Activation ([1]; 2-point score): 0
- Induction of FOXO3-regulated genes: CAT normalized fold-change ([1]; Assay 10(m), at 10 uM, qPCR): CAT 1.41, fold-change
- Induction of FOXO3-regulated genes: DDB1 normalized fold-change ([1]; Assay 10(m), at 10 uM, qPCR): DDB1 1.31, fold-change
- Induction of FOXO3-regulated genes: SESN1 normalized fold-change ([1]; Assay 10(m), at 10 uM, qPCR): SESN1 1.77, fold-change
- Induction of FOXO3-regulated genes: TXNIP normalized fold-change ([1]; Assay 10(m), at 10 uM, qPCR): TXNIP 1.35, fold-change
- DDB1 Normalized fold change [1, 15]: 1.308 fold change
- GADD45A Normalized fold change [1, 15]: 1.431 fold change
- SESN1 Normalized fold change [1, 15]: 1.773 fold change
- Summary of effects on FOXO3-regulated genes: CAT [1, 16]: CAT 1.41,
- Summary of effects on FOXO3-regulated genes: DDB1 [1, 16]: DDB1 1.31,
- Summary of effects on FOXO3-regulated genes: SESN1 [1, 16]: SESN1 1.77,
- Summary of effects on FOXO3-regulated genes: TXNIP [1, 16]: TXNIP 1.35,
- CAT Normalized fold change [1, 17]: 1.410
- SOD2 Normalized fold change [1, 17]: 1.143
- TXNIP Normalized fold change [1, 17]: 1.346
- K = Sestrin induction [1]: 1
- E = Potential FOXO3 Activation ([1]; summary score): 0
- Induction of at least two NRF2-regulated genes (HMOX1, NQO1, GCLC, GSTM1) ([2]; 10 μM, 24 hrs, WI-38): could induce expression of at least two genes
- GSTM1 expression, normalized fold change (NRF2-regulated gene) [2, 14]: GSTM1 1.30, fold
- NQO1 expression, normalized fold change (NRF2-regulated gene) [2, 14]: NQO1 2.03, fold
- F = Potential NRF2 Activation ([2]; 2-point score): 0
- Induction of NRF2-regulated genes: GSTM1 normalized fold-change ([2]; Assay 12(o), at 10 uM, qPCR): GSTM1 1.30, fold-change
- Induction of NRF2-regulated genes: NQO1 normalized fold-change ([2]; Assay 12(o), at 10 uM, qPCR): NQO1 2.03, fold-change
- GCLC Normalized fold change [2, 15]: 1.333 fold change
- GSTM1 Normalized fold change [2, 15]: 1.304 fold change
- HMOX1 Normalized fold change [2, 15]: 1.069 fold change
- NQO1 Normalized fold change [2, 15]: 2.027 fold change
- Summary of effects on NRF2-regulated genes: GSTM1 [2, 18]: 1.30,
- Summary of effects on NRF2-regulated genes: NQO1 [2, 18]: 2.03,
- F = Potential NRF2 Activation ([2]; summary score): 0
- G = mTOR down-regulation ([3]; 2-point score): 0
- G = mTOR down-regulation ([3]; summary score): 0

SMILES: Oc1ncnc2sc3c(c12)CCC3 [O14]
- Induction of at least two of five FOXO3-regulated genes (SOD2, GADD45A, CAT, DDB1, TXNIP) ([1]; 10 μM, 24 hrs): significant induction
- E = Potential FOXO3 Activation ([1]; 2-point score): 0
- fold induction at 10 µM ([1]; 24 h, Assay 10(m), at 10 uM, qPCR, read-out: Induction of FOXO3-regulated genes: SOD2 normalized fold-change): 1.06
- fold induction at 10 µM ([1]; 24 h, Assay 10(m), at 10 uM, qPCR, read-out: Induction of FOXO3-regulated genes: TXNIP normalized fold-change): 1.27
- fold induction at 10 µM ([1]; 10 μM, 24 hrs, WI-38 cells, qPCR, normalized to B2M, n = 4, read-out: TXNIP expression, normalized fold change (FOXO3-regulated gene)): 1.39
- fold induction at 10 µM [1, 4]: 1.08
- fold induction at 10 µM [1, 5]: 1.2
- fold induction at 10 µM [1, 6]: 1.14
- fold induction at 10 µM ([1]; fold change, qPCR, WI-38 cells, 10 μM, 24 hrs, read-out: Summary of effects on FOXO3-regulated genes: TXNIP): 1.39
- fold induction at 10 µM [1, 7]: 1.03
- fold induction at 10 µM [1, 8]: 1.27
- fold induction at 10 µM [1, 9]: 1.39
- K = Sestrin induction [1]: 0
- E = Potential FOXO3 Activation ([1]; summary score): 0
- F = Potential NRF2 Activation ([2]; 2-point score): 0
- fold induction at 10 µM [2, 10]: 1.07
- fold induction at 10 µM [2, 11]: 1.53
- fold induction at 10 µM [2, 12]: 1.11
- fold induction at 10 µM [2, 13]: 0.871
- F = Potential NRF2 Activation ([2]; summary score): 0
- G = mTOR down-regulation ([3]; 2-point score): 0
- G = mTOR down-regulation ([3]; summary score): 0
